The values that follow come from patent US20090048157A1, “USE OF ORGANIC COMPOUNDS” (priority 2004, published 2009).

Format in all cases: in vivo, human
Assay [1] relates to Serum CTX-I (bone resorption marker). Description: Serum CTX-I response to oral SCT in postmenopausal women, clinical trial. As to conditions: after the first dose, 0.15, 0.4, 1.0 or 2.5 mg, dose-dependent, compared with placebo. An excerpt: Serum CTX-I, or CrossLaps® (Nordic Bioscience Diagnostics A/S, cat. no. 4CRL4000) is an enzyme-immunoassay for quantitative assessment of bone resorption, and has been cleared by the FDA. It is based on two highly specific monoclonal antibodies against the amino acid sequence of EKAHD-β-GGR originating from the C-telopeptide of type I collagen. The aspartic acid residue (D) is β-isomerized. Standards, control, or unknown serum samples are pipetted into the appropriate microtitre wells coated with streptavidin, followed by application of a mixture of a biotinylated antibody and a peroxidase-conjugated antibody. […] Finally, the absorbance is measured.
(§1) The response of serum CTX-I and N-MID® Osteocalcin to SCT in postmenopausal women is examined in a multi-center, randomised, double-blind, placebo-controlled, dose-ranking clinical trial including 277 study participants aged 55-85 years (the study has been described in detail in Tank{acute over (0)} et al., J Bone Miner Res., in print). The study participants receives active treatment (daily doses of 0.15, 0.4, 1.0, or 2.5 mg or 1.0 mg every other day) or placebo for three months and serum CTX-I as well as N-MID® Osteocalcin are measured frequently during a 24-hours period before drug administration and after one and three months.

In assay [2] the test system is N-MID Osteocalcin (bone formation marker). Description: N-MID Osteocalcin ELISA response to oral SCT in postmenopausal women, clinical trial. As to conditions: 0.15-2.5 mg daily or 1.0 mg every other day, compared with placebo.
Description: The N-MID® Osteocalcin ELISA (Nordic Bioscience Diagnostics A/S, cat. no. 3OSC4000) is an enzyme innuosorbent assay for quantitative assessment of bone formation, and has been cleared by the FDA. It is based upon the application of two highly specific monoclonal antibodies (Mabs) against human osteocalcin. An antibody recognizing the midregion (amino acids 20-29) is used as the capture antibody and for detection a peroxidase conjugated antibody recognizing the N-terminal region (amino acids 10-16) is used. In addition to intact osteocalcin (amino acid 1-49) the N-terminal-Mid fragment (amino acids 1-43) is also detected. […] Finally, the absorbance is measured.
as §1
On the technique in general: An ELISA detects its analyte on a solid surface through an enzyme-linked reagent.

In assay [3] the test system is Serum CTX-I (bone resorption marker). Briefly: Serum CTX-I (CrossLaps) after single doses of oral or iv salmon calcitonin in male volunteers. As to conditions: eight male volunteers, oral and iv SCT. From the text:
Serum CTX-I, or CrossLaps® (Nordic Bioscience Diagnostics A/S, cat. no. 4CRL4000) is an enzyme-immunoassay for quantitative assessment of bone resorption, and has been cleared by the FDA. It is based on two highly specific monoclonal antibodies against the amino acid sequence of EKAHD-β-GGR originating from the C-telopeptide of type I collagen. The aspartic acid residue (D) is β-isomerized. Standards, control, or unknown serum samples are pipetted into the appropriate microtitre wells coated with streptavidin, followed by application of a mixture of a biotinylated antibody and a peroxidase-conjugated antibody. Then, a complex between the CTX antigens, biotinylated antibody and peroxidase-conjugated antibody is generated, and this complex binds to the streptavidin surface via the biotinylated antibody. Following the one-step incubation at room temperature, the wells are emptied and washed. A chromogenic substrate is added and the colour reaction is stopped with sulfuric acid. Finally, the absorbance is measured.
The effect of oral salmon calcitonin (SCT) on the serum levels of CTX-I is investigated by randomising study participants (eight male volunteers) to receive three. single doses of SCT, a verum intravenous infusion of SCT or placebo in a five-period cross-over design (the study is described in detail in Buchlin et al., J Bone Miner Res., (2002); 17:1478-1485).

In the case of salmon calcitonin [SCT], the “Serum CTX-I decrease from baseline” value in assay [1] is −60.8 to −81.8%. In addition, the “Changes of N-MID Osteocalcin” value in assay [2] is listed as “non-significant”. In assay [3], the “Time to nadir of serum CTX-I post-treatment” value fell in the range of 2 to 4 h and the “Time to return of serum CTX-I to pre-treatment levels” value was 24 h. Also, the “Serum CTX-I: inhibition of bone resorption” value in assay [3] (cross-over vs placebo) is recorded as “marked dose-dependent inhibition of bone resorption”.
